ChEMBL document CHEMBL5523718, “Design, synthesis, molecular modeling, in vitro and in vivo biological evaluation of potent anthranilamide derivatives as dual P-glycoprotein and CYP3A4 inhibitors” (Eur J Med Chem, 2024)
Converted amounts (≈) assume the structure as drawn. Each block holds one compound with its values, some of them ahead of it.

Experiments:
[1] = molecular target: T1, ATP-dependent translocase ABCB1 (Homo sapiens, UniProt P08183); assay: Inhibition of P-gp (unknown origin) ATPase activity
T1 sequence (P08183 whole entry): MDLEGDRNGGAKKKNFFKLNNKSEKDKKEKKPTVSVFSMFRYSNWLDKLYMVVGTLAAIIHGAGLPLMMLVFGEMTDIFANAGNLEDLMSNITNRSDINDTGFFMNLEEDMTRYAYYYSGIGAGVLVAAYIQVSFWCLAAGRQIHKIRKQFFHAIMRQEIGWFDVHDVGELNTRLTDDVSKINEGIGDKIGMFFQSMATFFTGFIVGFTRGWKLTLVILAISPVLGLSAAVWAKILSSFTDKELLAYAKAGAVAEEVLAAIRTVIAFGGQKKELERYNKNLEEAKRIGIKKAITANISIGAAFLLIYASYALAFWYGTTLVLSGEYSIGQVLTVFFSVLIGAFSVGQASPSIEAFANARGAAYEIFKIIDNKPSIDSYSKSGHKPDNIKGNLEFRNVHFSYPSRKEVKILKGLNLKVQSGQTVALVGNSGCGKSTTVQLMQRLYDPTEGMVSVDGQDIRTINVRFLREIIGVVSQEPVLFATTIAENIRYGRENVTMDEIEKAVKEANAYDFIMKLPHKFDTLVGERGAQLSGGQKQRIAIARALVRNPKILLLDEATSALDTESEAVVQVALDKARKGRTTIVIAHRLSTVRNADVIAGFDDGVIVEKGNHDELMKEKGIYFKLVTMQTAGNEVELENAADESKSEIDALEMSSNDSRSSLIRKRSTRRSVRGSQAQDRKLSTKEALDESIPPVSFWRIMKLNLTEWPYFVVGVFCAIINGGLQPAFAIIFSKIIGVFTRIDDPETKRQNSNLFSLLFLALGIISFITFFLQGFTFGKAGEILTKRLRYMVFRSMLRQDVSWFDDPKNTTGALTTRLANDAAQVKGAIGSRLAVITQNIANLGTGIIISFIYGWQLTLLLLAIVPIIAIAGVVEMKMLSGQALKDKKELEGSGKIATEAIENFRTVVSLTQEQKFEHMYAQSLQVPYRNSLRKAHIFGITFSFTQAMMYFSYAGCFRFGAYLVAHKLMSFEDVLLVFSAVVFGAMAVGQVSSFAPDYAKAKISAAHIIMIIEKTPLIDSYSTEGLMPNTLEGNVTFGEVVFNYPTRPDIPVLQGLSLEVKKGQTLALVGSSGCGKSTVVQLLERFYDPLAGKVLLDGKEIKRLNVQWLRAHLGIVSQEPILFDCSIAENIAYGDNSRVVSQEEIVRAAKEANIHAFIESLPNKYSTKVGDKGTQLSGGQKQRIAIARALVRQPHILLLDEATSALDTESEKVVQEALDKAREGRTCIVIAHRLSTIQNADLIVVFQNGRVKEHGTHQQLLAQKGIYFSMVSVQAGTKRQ

[2] = Equilibrium solubility of compound in PBS at pH 7.4; type: physicochemical
[3] = molecular target: T2, P-gp (ABCB1) (Homo sapiens, UniProt P08183); assay: Inhibition of P-gp in human Caco-2 cells at 10 uM in presence of paclitaxel relative to control; type: cell-based; details: Caco-2, probe paclitaxel
T2 sequence (P08183 whole entry): as above

[4] = Metabolic stability in human liver microsome assessed as intrinsic clearance; type: ADME; details: microsomes
[5] = molecular target: T1, ATP-dependent translocase ABCB1; assay: Inhibition of P-gp in human Caco-2 cells in presence of paclitaxel; type: cell-based
[6] = molecular target: T2, P-gp (ABCB1); assay: Inhibition of P-gp in human Caco-2 cells at 0.01 uM in presence of paclitaxel relative to control; type: cell-based; details: Caco-2, probe paclitaxel
[7] = molecular target: T1, ATP-dependent translocase ABCB1; assay: Inhibition of P-gp in human MES-SA/Dx5 cells; type: cell-based
[8] = molecular target: T2, P-gp (ABCB1); assay: Inhibition of P-gp in human Caco-2 cells at 1 uM in presence of paclitaxel relative to control; type: cell-based; details: Caco-2, probe paclitaxel
[9] = molecular target: T2, P-gp (ABCB1); assay: Inhibition of P-gp in human Caco-2 cells at 0.1 uM in presence of paclitaxel relative to control; type: cell-based; details: Caco-2, probe paclitaxel
[10] = Metabolic stability in rat liver microsome assessed as half life; type: ADME; details: liver microsomes
[11] = molecular target: T2, P-gp (ABCB1); assay: Inhibition of P-gp in human Caco-2 cells at 5 uM in presence of paclitaxel relative to control; type: cell-based; details: Caco-2, probe paclitaxel
[12] = MRT in CD-1 mouse at 10 mg/kg, po measured upto 8 hrs by LC-MS/MS analysis; type: ADME, organism-based; details: in vivo
[13] = molecular target: T3, Broad substrate specificity ATP-binding cassette transporter ABCG2 (Homo sapiens, UniProt Q9UNQ0); assay: Inhibition of BCRP (unknown origin) ATPase activity
T3 sequence (Q9UNQ0 whole entry): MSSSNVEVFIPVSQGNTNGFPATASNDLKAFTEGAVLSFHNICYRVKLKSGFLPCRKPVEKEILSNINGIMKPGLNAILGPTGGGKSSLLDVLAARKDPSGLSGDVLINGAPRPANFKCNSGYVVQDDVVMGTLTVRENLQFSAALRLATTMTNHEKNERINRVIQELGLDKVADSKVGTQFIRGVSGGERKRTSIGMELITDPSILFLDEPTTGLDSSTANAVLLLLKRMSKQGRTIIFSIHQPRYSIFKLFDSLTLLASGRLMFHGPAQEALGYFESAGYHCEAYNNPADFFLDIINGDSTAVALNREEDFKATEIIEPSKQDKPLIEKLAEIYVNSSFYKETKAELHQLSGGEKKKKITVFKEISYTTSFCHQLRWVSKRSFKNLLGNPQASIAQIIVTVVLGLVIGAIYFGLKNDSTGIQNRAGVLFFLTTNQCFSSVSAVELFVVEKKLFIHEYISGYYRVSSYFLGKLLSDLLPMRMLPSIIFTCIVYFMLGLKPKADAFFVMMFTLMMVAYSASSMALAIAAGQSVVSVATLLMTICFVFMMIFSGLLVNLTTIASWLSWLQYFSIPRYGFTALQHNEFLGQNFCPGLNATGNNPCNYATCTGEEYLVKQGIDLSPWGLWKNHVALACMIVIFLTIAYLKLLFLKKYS

[14] = Metabolic stability in monkey liver microsome assessed as intrinsic clearance; type: ADME, Macaca mulatta; details: rhesus monkey, microsomes
[15] = Metabolic stability in rat liver microsome assessed as intrinsic clearance; type: ADME; details: microsomes
[16] = Inhibition of MRP1 (unknown origin) ATPase activity; set-up: species or system Homo sapiens
[17] = Metabolic stability in mouse liver microsome assessed as intrinsic clearance; type: ADME; details: microsomes
[18] = Metabolic stability in human liver microsome assessed as half life; type: ADME; details: liver microsomes
[19] = Metabolic stability in monkey liver microsome assessed as half life; type: ADME, Macaca mulatta; details: rhesus monkey, liver microsomes
[20] = molecular target: ATP-binding cassette sub-family C member 2 (Homo sapiens, UniProt Q92887); assay: Inhibition of MRP2 (unknown origin) ATPase activity
ATP-binding cassette sub-family C member 2, sequence (Q92887 whole entry): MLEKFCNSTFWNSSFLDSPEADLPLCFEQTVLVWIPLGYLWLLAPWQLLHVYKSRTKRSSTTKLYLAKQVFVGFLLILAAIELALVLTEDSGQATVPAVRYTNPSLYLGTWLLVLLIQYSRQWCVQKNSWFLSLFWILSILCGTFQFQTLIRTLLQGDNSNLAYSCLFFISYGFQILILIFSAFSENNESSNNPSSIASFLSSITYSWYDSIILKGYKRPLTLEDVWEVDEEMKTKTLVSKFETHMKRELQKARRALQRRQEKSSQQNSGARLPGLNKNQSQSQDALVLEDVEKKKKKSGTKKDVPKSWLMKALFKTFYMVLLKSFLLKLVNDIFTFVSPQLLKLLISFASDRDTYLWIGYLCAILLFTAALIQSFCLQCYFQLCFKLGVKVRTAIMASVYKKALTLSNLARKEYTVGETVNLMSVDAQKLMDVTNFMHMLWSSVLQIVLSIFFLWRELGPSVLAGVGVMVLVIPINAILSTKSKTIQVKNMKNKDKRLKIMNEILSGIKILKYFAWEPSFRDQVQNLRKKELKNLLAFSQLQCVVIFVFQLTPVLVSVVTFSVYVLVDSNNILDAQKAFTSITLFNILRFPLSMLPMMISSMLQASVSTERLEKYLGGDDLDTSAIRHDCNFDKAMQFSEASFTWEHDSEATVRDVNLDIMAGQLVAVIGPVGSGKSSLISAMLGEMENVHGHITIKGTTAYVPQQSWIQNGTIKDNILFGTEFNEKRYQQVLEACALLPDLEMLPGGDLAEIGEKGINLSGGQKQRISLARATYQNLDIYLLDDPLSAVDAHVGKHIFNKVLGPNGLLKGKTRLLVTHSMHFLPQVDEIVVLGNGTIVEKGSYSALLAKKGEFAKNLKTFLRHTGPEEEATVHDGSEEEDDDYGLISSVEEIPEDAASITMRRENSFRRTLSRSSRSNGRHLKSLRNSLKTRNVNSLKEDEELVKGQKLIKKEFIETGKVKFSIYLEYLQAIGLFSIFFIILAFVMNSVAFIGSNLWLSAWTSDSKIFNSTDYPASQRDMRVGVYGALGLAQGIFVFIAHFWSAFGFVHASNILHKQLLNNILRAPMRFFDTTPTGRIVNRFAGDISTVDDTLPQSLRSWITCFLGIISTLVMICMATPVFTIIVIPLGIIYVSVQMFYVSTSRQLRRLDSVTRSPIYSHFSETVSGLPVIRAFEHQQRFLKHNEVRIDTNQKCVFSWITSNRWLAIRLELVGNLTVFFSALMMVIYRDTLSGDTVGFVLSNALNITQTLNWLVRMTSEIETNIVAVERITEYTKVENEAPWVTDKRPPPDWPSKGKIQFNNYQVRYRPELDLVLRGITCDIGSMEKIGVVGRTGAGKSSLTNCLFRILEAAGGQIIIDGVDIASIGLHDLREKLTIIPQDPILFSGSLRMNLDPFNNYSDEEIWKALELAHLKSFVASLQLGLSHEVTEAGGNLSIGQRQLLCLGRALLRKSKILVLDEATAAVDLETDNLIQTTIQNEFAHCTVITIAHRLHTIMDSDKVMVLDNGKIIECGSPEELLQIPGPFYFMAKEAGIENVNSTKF

[21] = Metabolic stability in mouse liver microsome assessed as half life; type: ADME; details: liver microsomes
[22] = Half life in CD-1 mouse at 10 mg/kg, po measured upto 8 hrs by LC-MS/MS analysis; type: ADME, organism-based; details: in vivo
[23] = test system: MES-SA/Dx5; assay: Cytotoxicity against human MES-SA/Dx5 cells at 1.28 uM incubated for 3 days by MTT assay relative to control; type: functional; details: time 3 day
[24] = Apparent permeability of compound across apical to basolateral side in human Caco-2 cells; type: ADME, cell-based
[25] = Apparent permeability of compound across basolateral to apical side in human Caco-2 cells; type: ADME, cell-based
[26] = Apparent permeability across apical to basolateral side in human Caco-2 cells assessed as drug recovery; type: ADME, cell-based; details: read-out: Drug recovery
[27] = molecular target: T4, Cytochrome P450 3A4 (Homo sapiens, UniProt P08684); assay: Inhibition of CYP3A4 in human liver using luciferin-IPA as substrate microsome preincubated with compound for 10 mins followed by NADPH addition and measured after 5 mins; type: ADME, microsomes
T4 sequence (P08684 whole entry): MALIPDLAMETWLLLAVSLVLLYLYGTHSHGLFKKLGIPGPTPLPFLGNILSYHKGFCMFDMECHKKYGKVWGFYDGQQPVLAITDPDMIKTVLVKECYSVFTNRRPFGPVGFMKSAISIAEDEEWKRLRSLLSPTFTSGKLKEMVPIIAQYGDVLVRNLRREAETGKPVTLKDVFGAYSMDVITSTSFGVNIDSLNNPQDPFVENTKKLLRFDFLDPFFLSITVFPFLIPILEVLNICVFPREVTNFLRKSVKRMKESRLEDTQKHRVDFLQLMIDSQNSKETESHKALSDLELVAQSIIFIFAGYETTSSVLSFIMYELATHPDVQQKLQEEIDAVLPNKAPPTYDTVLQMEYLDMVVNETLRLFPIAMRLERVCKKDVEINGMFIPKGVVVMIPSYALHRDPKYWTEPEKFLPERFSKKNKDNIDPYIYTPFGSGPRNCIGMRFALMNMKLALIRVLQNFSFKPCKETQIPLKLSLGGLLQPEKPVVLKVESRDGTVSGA

[28] = Efflux ratio of apparent permeability across basolateral to apical side over apical to basolateral side in human Caco-2 cells; type: ADME, cell-based
[29] = Apparent permeability across basolateral to apical side in human Caco-2 cells assessed as drug recovery; type: ADME, cell-based; details: read-out: Drug recovery
[30] = molecular target: T4, Cytochrome P450 3A4; assay: Inhibition of CYP3A4 in human Hepatocyte using Luciferin-IPA as substrate; type: ADME, cell-based
[31] = AUC (0 to t) in Sprague-Dawley rat at 20 mg/kg, po measured upto 24 hrs by LC-MS/MS analysis; type: ADME, organism-based; details: in vivo
[32] = MRT in Sprague-Dawley rat at 20 mg/kg, po measured upto 24 hrs by LC-MS/MS analysis; type: ADME, organism-based; details: in vivo
[33] = Cmax in Sprague-Dawley rat at 20 mg/kg, po measured upto 24 hrs by LC-MS/MS analysis; type: ADME, organism-based; details: in vivo
[34] = Tmax in Sprague-Dawley rat at 20 mg/kg, po measured upto 24 hrs by LC-MS/MS analysis; type: ADME, organism-based; details: in vivo

- IC50 [1]: 0.035 µM
- solubility thermodynamic ([2]; PBS): 0.44 µM (≈ 0.285 µg/mL)
- inhibition at 10 µM [3]: 96%
- CLH [4]: < 23 µL/min/mg
- IC50 [5]: 0.053 µM
- inhibition at 0.01 µM [6]: 0%
- EC50 [7]: 0.035 µM
- inhibition at 1 µM [8]: 92%
- inhibition at 0.1 µM [9]: 77%
- half-life [10]: > 1 h
- inhibition at 5 µM [11]: 96%
- MRT [12]: 1.26 h
- IC50 [13]: 0.237 µM
- CLH [14]: 39 µL/min/mg
- CLH [15]: < 23 µL/min/mg
- IC50 [16]: > 10 µM
- CLH [17]: < 23 µL/min/mg
- half-life [18]: > 1 h
- half-life [19]: 0.583 h
- IC50 [20]: > 10 µM
- half-life [21]: > 1 h
- half-life [22]: 1.11 h
Structure (SMILES): COc1cc2c(cc1OC)CN(CCc1ccc(NC(=O)c3cc(OC)c(OC)cc3NC(=O)c3cnc4ccccc4c3)cc1)CC2
- Activity [23]: 5%

- solubility ([2]; buffer): Not Determined(Insoluble)
- Papp A→B [24]: 0.55 ×10⁻⁶ cm/s
- Papp B→A [25]: 0.4 ×10⁻⁶ cm/s
- recovery [26]: 61%
- EC50 [7]: 0.045 µM
- IC50 [27]: 0.334 µM
- efflux ratio [28]: 0.7
- recovery [29]: 72%
- IC50 [30]: 1.24 µM
Structure (SMILES): COc1cc(NC(=O)c2cnc3ccccc3c2)c(C(=O)Nc2ccc(C3CCN(Cc4cccc(-n5ccnc5)c4)CC3)cc2)cc1OC
- Activity [23]: 1%

- AUCt [31]: 95.9 ng·h/mL
- Papp A→B [24]: 0.41 ×10⁻⁶ cm/s
- Papp B→A [25]: 17.1 ×10⁻⁶ cm/s
- recovery [26]: 54%
- MRT [32]: 5.37 h
- Cmax [33]: 14.9 ng/mL
- recovery [29]: 66%
- Tmax [34]: 8 h
Structure (SMILES): CC(=O)O[C@H]1C(=O)[C@@]2(C)[C@H]([C@H](OC(=O)c3ccccc3)[C@]3(O)C[C@H](OC(=O)[C@H](O)[C@@H](NC(=O)c4ccccc4)c4ccccc4)C(C)=C1C3(C)C)[C@]1(OC(C)=O)CO[C@@H]1C[C@@H]2O [PACLITAXEL]
